“And” between values parts separate entries of the source, which are not always exact repeats. Equal entries are not always repeated.
Experiment: xn = mol fraction of the nth substance listed

Cc1cc(C)cc(C)c1 + CCCO
293.15 K, 101 kPa
Conditions | viscosity [mPa·s]
x2 = 0.2 | 0.748
x2 = 0.4 | 0.855
x2 = 0.6 | 1.075
x2 = 0.8 | 1.419

CC=CC(=O)OCC + CCO
viscosity [mPa·s], 101 kPa
Conditions | x1 = 0.0991 | x1 = 0.1985 | x1 = 0.2994 | x1 = 0.3961 | x1 = 0.5006 | x1 = 0.6 | x1 = 0.6968 | x1 = 0.7816 | x1 = 0.8996
293.15 K | 1.026 | 0.929 | 0.9257 | 0.9219 | 0.878 | 0.8293 | 0.8016 | 0.8351 | 0.8122
298.15 K | 0.9334 | 0.8523 | 0.8465 | 0.8404 | 0.8061 | 0.7663 | 0.7402 | 0.7648 | 0.7535
303.15 K | 0.8498 | 0.7812 | 0.7751 | 0.7739 | 0.7411 | 0.7061 | 0.6855 | 0.7052 | 0.7
313.15 K | 0.7166 | 0.6615 | 0.6607 | 0.6588 | 0.6372 | 0.6091 | 0.5958 | 0.6134 | 0.6108
323.15 K | 0.6156 | 0.5747 | 0.5702 | 0.5686 | 0.5537 | 0.5363 | 0.5284 | 0.5414 | 0.5401

Cc1cc(C)cc(C)c1 + CCO
293.15 K, 101 kPa
Conditions | viscosity [mPa·s]
x2 = 0.2 | 0.718
x2 = 0.4 | 0.764
x2 = 0.6 | 0.854
x2 = 0.8 | 0.983

O=S=O + CCOC(C)=O
298.15 K, 101 kPa
Conditions | viscosity [mPa·s]
x1 = 0.115 | 0.4299
x1 = 0.236 | 0.4289
x1 = 0.35 | 0.4239

O=S=O + CCOCC
298.15 K, 101 kPa
Conditions | viscosity [mPa·s]
x1 = 0.0574 | 0.2303
x1 = 0.0951 | 0.2353
x1 = 0.1329 | 0.24
x1 = 0.1607 | 0.2443

O=C1CCCN1 + CN1CCCC1=O
298.15 K, 100 kPa
Conditions | viscosity [mPa·s]
x1 = 0.0188 | 1.759
x1 = 0.0298 | 1.79
x1 = 0.0397 | 1.827
x1 = 0.0507 | 1.835
x1 = 0.065 | 1.874
x1 = 0.0793 | 1.963
x1 = 0.097 | 1.992
x1 = 0.1004 | 1.999
x1 = 0.1498 | 2.168
x1 = 0.1993 | 2.356
x1 = 0.2495 | 2.568
x1 = 0.3001 | 2.808
x1 = 0.3497 | 3.067
x1 = 0.3986 | 3.361
x1 = 0.4492 | 3.704
x1 = 0.4994 | 4.091
x1 = 0.5493 | 4.53
x1 = 0.5989 | 5.022
x1 = 0.6497 | 5.608
x1 = 0.6992 | 6.263
x1 = 0.7487 | 7.017
x1 = 0.7986 | 7.914
x1 = 0.8494 | 8.966
x1 = 0.8984 | 10.14
x1 = 0.918 | 10.67
x1 = 0.9287 | 10.99
x1 = 0.9394 | 11.33
x1 = 0.959 | 12.01
x1 = 0.9695 | 12.29
x1 = 0.9798 | 12.64
x2 = 0.0111 | 12.96

OCCCCO + CN1CCCC1=O
308.15 K, 101 kPa
Conditions | viscosity [mPa·s]
x1 = 0.0277 | 1.784
x1 = 0.0556 | 1.943
x1 = 0.1011 | 2.235
x1 = 0.1982 | 3.025
x1 = 0.2982 | 4.088
x1 = 0.4038 | 5.57
x1 = 0.4943 | 7.06
x1 = 0.6011 | 11.08
x1 = 0.7044 | 16.24
x1 = 0.7935 | 21.61
x1 = 0.8996 | 33.43
x1 = 0.946 | 39.29
x1 = 0.965 | 41.43

CCCCCCCC/C=C\CCCCCCCC(=O)O + CN1CCC[C@H]1c1cccnc1
viscosity [mPa·s], 101 kPa
Conditions | 298.15 K | 323.15 K
x2 = 0.1049 | 74.27 | 22.13
x2 = 0.1989 | 107 | 29.28
x2 = 0.2016 | 108 | 29.56
x2 = 0.2132 | 110.3 | 30.03
x2 = 0.2175 | 110.4 | 30.15
x2 = 0.2346 | 112.3 | 30.48
x2 = 0.2482 | 110.3 | 30.13
x2 = 0.2489 | 110 | 30.12
x2 = 0.2601 | 109.3 | 30.1
x2 = 0.2826 | 105.3 | 28.77
x2 = 0.298 | 102.5 | 28.02
x2 = 0.4102 | 73.48 | 22.19
x2 = 0.4841 | 51.84 | 17.6
x2 = 0.5948 | 34.19 | 12.35
x2 = 0.7031 | 20.12 | 8.136
x2 = 0.7939 | 11.7 | 5.197
x2 = 0.8975 | 7.276 | 3.432

OCCCCO + CN(C)C=O
308.15 K, 101 kPa
Conditions | viscosity [mPa·s]
x1 = 0.0565 | 0.762
x1 = 0.101 | 0.904
x1 = 0.1892 | 1.222
x1 = 0.2806 | 1.761
x1 = 0.3915 | 2.578
x1 = 0.4722 | 3.596
x1 = 0.5803 | 6.998
x1 = 0.6682 | 10.85
x1 = 0.7755 | 17.92
x1 = 0.8845 | 28.4
x1 = 0.9487 | 37.31

Cc1cc(C)cc(C)c1 + CO
293.15 K, 101 kPa
Conditions | viscosity [mPa·s]
x2 = 0.2 | 0.696
x2 = 0.4 | 0.699
x2 = 0.5 | 0.715
x2 = 0.6 | 0.721
x2 = 0.8 | 0.683

O=C1CCCN1 + CO
298.15 K, 100 kPa
Conditions | viscosity
x1 = 0.0098 | 0.568 mPa·s
x1 = 0.0194 | 0.587 mPa·s
x1 = 0.0295 | 0.641 mPa·s
x1 = 0.0392 | 0.657 mPa·s
x1 = 0.0499 | 0.687 mPa·s
x1 = 0.059 | 0.671 mPa·s
x1 = 0.0688 | 0.691 mPa·s
x1 = 0.078 | 0.708 mPa·s
x1 = 0.0883 | 0.755 mPa·s
x1 = 0.0973 | 0.759 mPa·s
x1 = 0.0988 | 0.906 mPa·s
x1 = 0.2022 | 1.133 mPa·s
x1 = 0.2963 | 1.432 mPa·s
x1 = 0.3984 | 1.937 mPa·s
x1 = 0.4592 | 2.346 mPa·s
x1 = 0.5694 | 3.304 mPa·s
x1 = 0.6844 | 4.749 mPa·s
x1 = 0.7834 | 6.52 mPa·s
x1 = 0.8988 | 9.529 mPa·s and 9.56 mPa·s
x1 = 0.9076 | 9.83 mPa·s
x1 = 0.9213 | 10.34 mPa·s
x1 = 0.9308 | 10.66 mPa·s
x1 = 0.9383 | 10.97 mPa·s
x1 = 0.9496 | 11.39 mPa·s
x1 = 0.9615 | 11.92 mPa·s
x1 = 0.9741 | 12.35 mPa·s
x2 = 0.0101 | 13.03 mPa·s

CC(C)Cc1ccccc1 + COC(=O)c1ccccc1
viscosity [mPa·s], 101 kPa
Conditions | x2 = 0.1256 | x2 = 0.2427 | x2 = 0.355 | x2 = 0.4602 | x2 = 0.5572 | x2 = 0.6486 | x2 = 0.7454 | x2 = 0.8333 | x2 = 0.9166
303.15 K | 0.957 | 1.001 | 1.057 | 1.127 | 1.195 | 1.274 | 1.363 | 1.467 | 1.555
313.15 K | 0.824 | 0.862 | 0.908 | 0.961 | 1.011 | 1.075 | 1.145 | 1.215 | 1.288

CCC(C)CC + COC(C)(C)C
298.15 K, 101.33 kPa
Conditions | viscosity [mPa·s]
x2 = 0.0876 | 0.2925
x2 = 0.1993 | 0.2945
x2 = 0.2983 | 0.2972
x2 = 0.3943 | 0.3008
x2 = 0.5016 | 0.3049
x2 = 0.5934 | 0.3089
x2 = 0.6935 | 0.3139
x2 = 0.7963 | 0.3199
x2 = 0.8984 | 0.3268

O=C1CCCN1 + COCCO
298.15 K, 101 kPa
Conditions | viscosity [mPa·s]
x1 = 0.0049 | 1.544
x1 = 0.0127 | 1.567
x2 = 0.0059 | 14.01
x2 = 0.0144 | 13.59
x2 = 0.0218 | 13.27
x2 = 0.0326 | 12.77
x2 = 0.0446 | 12.37
x2 = 0.0689 | 11.33
x2 = 0.0849 | 10.74
x2 = 0.1078 | 10.07
x2 = 0.127 | 9.467
x2 = 0.1824 | 8.072
x2 = 0.2392 | 6.994
x2 = 0.2918 | 6.075
x2 = 0.3249 | 5.599
x2 = 0.3711 | 5.006
x2 = 0.4202 | 4.585
x2 = 0.5242 | 3.631
x2 = 0.5773 | 3.264
x2 = 0.6342 | 2.895
x2 = 0.6686 | 2.717
x2 = 0.7286 | 2.446
x2 = 0.7755 | 2.248
x2 = 0.8174 | 2.089
x2 = 0.8558 | 1.966
x2 = 0.9003 | 1.819
x2 = 0.9214 | 1.756
x2 = 0.9381 | 1.703
x2 = 0.9524 | 1.669
x2 = 0.9729 | 1.604

From the CheMixHub viscosity set
